Patent publication EP4729053A1, “SOLID DISPERSION OF P2X4 INHIBITOR, AND PREPARATION METHOD THEREFOR AND USE THEREOF” (Wuhan Createrna Science and Technology Co.,Ltd., priority 2023, dated 2024)

Key:
[1] = Pharmacokinetic study in rats, intragastric administration; format: in vivo; settings: rat, plasma, po, Male SD rats, i.g., vehicle 5% Solutol
Method: SPF-grade male SD rats weighing 160 to 320 g were divided into 2 groups, with 3 rats per group [Source: Beijing Vital River Laboratory Animal Technology Co., Ltd., Certificate No.: 1103242011040898].
Formulation and dosing: According to the drug concentration and dosing requirements in Table 15 below, the API was accurately weighed and added to the required volume of 5% Solutol. The mixture was vortexed for 2 minutes, then sonicated for 10 minutes, and stirred for 1 hour before administration. Table 15: Formulation and dosing regimen for API pharmacokinetic study
SPF-grade male SD rats weighing 160 to 320 g were divided into 6 groups, with 3 rats per group [Source: Beijing Vital River Laboratory Animal Technology Co., Ltd., Certificate No.: 110011210113195883 (male)].
Formulation and dosing: 80 mg of the corresponding sample in the table below was accurately weighed, dispersed in the required volume of pure water, vortexed for 5 minutes, and administered intragastrically (i.g.). The experimental dosing was scaled proportionally based on animal body weight and dosing concentration.
After administration to the SD rats in each group of Experimental Preparation 1 and Experimental Preparation 2, approximately 0.2 to 0.3 mL of blood samples were collected from the orbital venous plexus at 0.167, 0.5, 1, 2, 3, 4, 6, 8, 10, and 24 hours post-dosing, and transferred to an anticoagulant EP tube (containing 4 µL of EDTA-K2, 375 mg/mL), which was gently inverted three times, stored in an ice box (no more than 30 minutes), centrifuged at 3500 × g for 10 minutes at 4°C, and plasma supernatant was transferred to a labeled EP tube. Hemolysis was observed and recorded, followed by bioanalytical testing.
Sample pretreatment: 40 µL of sample was mixed with 160 µL of acetonitrile containing 0.1% FA and 200 ng/mL mixed internal standard to precipitate proteins. The mixture was vortexed thoroughly and centrifuged at 13,000 rpm for 10 minutes at 4°C.
110 µL of the supernatant was transferred to another 96-well deep-well plate, followed by addition of 110 µL of a mixture of methanol and water (1:3, v:v) containing 0.1% FA. The mixture was shaken for 10 minutes and analyzed using an LC-MS/MS system. The system employed a Sciex Exion LC AD high-performance liquid chromatography system with an XBridge BEH C18 (2.1 × 50 mm, 2.5 µm) column for gradient elution and an AB Sciex Qtrap 4500 mass spectrometer for analysis. The mass spectrometer employed an electrospray ionization (ESI) source in positive ion mode to monitor Tolbutamide, with precursor ion to product ion transitions with mass-to-charge ratios (m/z) of 415.1→263.1 and 271.1→155, respectively.
Data were analyzed using WinNonlin (version 5.2.1, Pharsight, Mountain View, CA) with a non-compartmental model to obtain PK parameters (Cmax, Tmax, T1/2, AUClast, etc.). Table 15: Pharmacokinetic data of some solid dispersions

[2] = Solubilization test of compound 1 with surfactants in FaSSIF; format: physicochemical; settings: for Concentration of API in vehicle: FaSSIF (pH 6.5), 37°C
Method: 50 mg of compound 1 was weighed into 5 mL of FaSSIF medium containing 5 mg of different surfactants (target concentration of API (compound 1): 10 mg/mL). The mixture was shaken at 500 rpm and 37°C. 0.5 mL each of the suspension samples was taken at 0.5 hours, 1 hour, 2 hours, and 4 hours, respectively, centrifuged at 14,000 rpm for 5 minutes, and the supernatant was diluted and analyzed by HPLC. Table 1: Solubility results of compound 1 in FaSSIF containing 10% of surfactant by weight

## NS(=O)(=O)c1cc(NC(=O)Cc2ccccc2Cl)cc2nn(C(F)F)cc12 [compound 1]
[1]; 30.00 mg/kg
  AUC(0-t): 10800 ng·h/mL
  Cmax: 2.76 µg/mL
  Tmax: 0.67 h
  half-life: 5.31 h
[1]; 300.00 mg/kg
  AUC(0-t): 14700 ng·h/mL
  Cmax: 2.36 µg/mL
  Tmax: 1 h
  half-life: 13.8 h
[2]; Cremophor EL 5 mg, 0.5 h
  Concentration of API in vehicle: 1574.3 µg/mL
[2]; Cremophor EL 5 mg, 1 h
  Concentration of API in vehicle: 1604.3 µg/mL
[2]; Cremophor EL 5 mg, 2 h
  Concentration of API in vehicle: 1538.6 µg/mL
[2]; Cremophor EL 5 mg, 4 h
  Concentration of API in vehicle: 1508.2 µg/mL
[2]; Cremophor RH40 5 mg, 0.5 h
  Concentration of API in vehicle: 1583.3 µg/mL
[2]; Cremophor RH40 5 mg, 1 h
  Concentration of API in vehicle: 1604.5 µg/mL
[2]; Cremophor RH40 5 mg, 2 h
  Concentration of API in vehicle: 1567.0 µg/mL
[2]; Cremophor RH40 5 mg, 4 h
  Concentration of API in vehicle: 1539.4 µg/mL
[2]; Poloxamer 188 5 mg, 0.5 h
  Concentration of API in vehicle: 115.6 µg/mL
[2]; Poloxamer 188 5 mg, 1 h
  Concentration of API in vehicle: 123.3 µg/mL
[2]; Poloxamer 188 5 mg, 2 h
  Concentration of API in vehicle: 104.0 µg/mL
[2]; Poloxamer 188 5 mg, 4 h
  Concentration of API in vehicle: 93.9 µg/mL
[2]; Poloxamer 407 5 mg, 0.5 h
  Concentration of API in vehicle: 838.4 µg/mL
[2]; Poloxamer 407 5 mg, 1 h
  Concentration of API in vehicle: 860.7 µg/mL
[2]; Poloxamer 407 5 mg, 2 h
  Concentration of API in vehicle: 842.0 µg/mL
[2]; Poloxamer 407 5 mg, 4 h
  Concentration of API in vehicle: 796.7 µg/mL
[2]; SLS 5 mg, 0.5 h
  Concentration of API in vehicle: 614.0 µg/mL
[2]; SLS 5 mg, 1 h
  Concentration of API in vehicle: 622.0 µg/mL
[2]; SLS 5 mg, 2 h
  Concentration of API in vehicle: 639.0 µg/mL
[2]; SLS 5 mg, 4 h
  Concentration of API in vehicle: 652.0 µg/mL
[2]; Solutol HS15 5 mg, 0.5 h
  Concentration of API in vehicle: 1465.9 µg/mL
[2]; Solutol HS15 5 mg, 1 h
  Concentration of API in vehicle: 1501.6 µg/mL
[2]; Solutol HS15 5 mg, 2 h
  Concentration of API in vehicle: 1480.7 µg/mL
[2]; Solutol HS15 5 mg, 4 h
  Concentration of API in vehicle: 1456.3 µg/mL
[2]; Tween 80 5 mg, 0.5 h
  Concentration of API in vehicle: 899.3 µg/mL
[2]; Tween 80 5 mg, 1 h
  Concentration of API in vehicle: 893.1 µg/mL
[2]; Tween 80 5 mg, 2 h
  Concentration of API in vehicle: 888.5 µg/mL
[2]; Tween 80 5 mg, 4 h
  Concentration of API in vehicle: 886.6 µg/mL
[2]; VE-TPGS 5 mg, 0.5 h
  Concentration of API in vehicle: 2113.7 µg/mL
[2]; VE-TPGS 5 mg, 1 h
  Concentration of API in vehicle: 2122.7 µg/mL
[2]; VE-TPGS 5 mg, 2 h
  Concentration of API in vehicle: 2089.3 µg/mL
[2]; VE-TPGS 5 mg, 4 h
  Concentration of API in vehicle: 2077.5 µg/mL
[2]; no surfactant, 0.5 h
  Concentration of API in vehicle: 33.9 µg/mL
[2]; no surfactant, 1 h
  Concentration of API in vehicle: 22.9 µg/mL
[2]; no surfactant, 2 h
  Concentration of API in vehicle: 15.2 µg/mL
[2]; no surfactant, 4 h
  Concentration of API in vehicle: 14.9 µg/mL
[2]; with surfactants SLS, Cremophor EL, Cremophor RH40, VE-TPGS, Tween 80, Poloxamer 407, and Solutol HS15
  solubility of compound 1: significantly improved
